Counter-ions that a name gives are not always drawn. Like-named read-outs stand apart in the source and are kept apart here.
Key:
[1] = target: human CDK4 and genetically truncated (1-264) cyclin D3 (Homo sapiens, UniProt P11802); assay: Inhibition of CDK4/Cyclin D Retinoblastoma Kinase Activity; type: biochemical; settings: for Ki: apparent Ki, CDK4/truncated cyclin D3, Rb fragment substrate, 25 μM ATP
Summary of the method: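 Human CDK4/truncated cyclin D3 (1-264) complex from baculovirus-infected insect cells, 5 nM, phosphorylating Rb fragment (residues 386-928, His-tagged) with 25 μM [32/33P]ATP in HEPES pH 7.4, MgCl2, 2% DMSO at 30° C. for 20 min (60 min for tight binders). Filter-captured radioactivity by phosphorimager; apparent Ki from competitive or tight-binding fits.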

HCT-116 cell line = assay: Inhibition of cell growth, tetrazolium salt (MTT) assay; type: cell-based; settings: Homo sapiens, HCT-116, 120 h, MTT, three to five days, read-out: HCT-116 IC50
Summary of the method: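 HCT-116 cells in McCoy's 5A medium received compound 4 h after plating (0.5% v/v DMSO) and were incubated three to five days at 37° C, 5% CO2. MTT (0.2 mg/mL final) then added for 4 h; DMSO-solubilized formazan read at 540 nm against 0.5% DMSO-treated controls.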

CDK2/Cyclin A = CDK2/Cyclin A (Homo sapiens, UniProt P24941); assay: Inhibition of CDK2/Cyclin A Retinoblastoma Kinase Activity; type: biochemical; settings: apparent Ki, CDK2/proteolyzed cyclin A, Rb fragment substrate, 25 μM ATP
Summary of the method: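 Baculovirus-expressed CDK2 complexed with proteolyzed cyclin A (10 or 19 nM), Rb fragment substrate, 25 μM [32P/33P]ATP, HEPES pH 7.4, 30 °C for 60 or 75 min under initial-rate conditions. Filter capture and phosphorimager readout; apparent Ki fitted to competitive or tight-binding competitive inhibition.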

human CDK4 and genetically truncated (1-264) cyclin D3, sequence (P11802 whole entry, the tested form may be a part): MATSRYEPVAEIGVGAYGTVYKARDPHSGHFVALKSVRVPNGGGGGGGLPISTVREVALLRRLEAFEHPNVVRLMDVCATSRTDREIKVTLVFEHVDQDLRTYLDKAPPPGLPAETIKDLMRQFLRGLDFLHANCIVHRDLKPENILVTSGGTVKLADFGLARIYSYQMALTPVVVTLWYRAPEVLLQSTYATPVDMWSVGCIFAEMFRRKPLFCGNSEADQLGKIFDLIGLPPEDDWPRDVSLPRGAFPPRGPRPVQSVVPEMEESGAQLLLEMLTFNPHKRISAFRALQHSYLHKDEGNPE
human CDK4 and genetically truncated (1-264) cyclin D3, sequence (P30281 1-264 partner): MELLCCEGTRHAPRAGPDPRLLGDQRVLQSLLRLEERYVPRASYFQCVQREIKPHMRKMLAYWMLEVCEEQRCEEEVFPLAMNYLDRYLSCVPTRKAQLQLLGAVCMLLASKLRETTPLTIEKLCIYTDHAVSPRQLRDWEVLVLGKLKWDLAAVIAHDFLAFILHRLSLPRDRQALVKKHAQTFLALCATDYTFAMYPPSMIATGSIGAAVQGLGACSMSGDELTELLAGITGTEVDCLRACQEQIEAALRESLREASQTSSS

Ki [1] [nM] | IC50 (HCT-116 cell line; first HCT-116 column (c4)) [nM] | IC50 (HCT-116 cell line; second HCT-116 column (c5)) [nM] | Ki (CDK2/Cyclin A) [nM] | inhibition at 0.05 µM [1] [%] | Structure (SMILES)
0.98 | 300 | 500 | < 1 | – | N#Cc1ccc(S(=O)(=O)N2CCC(Nc3nc(N)c(C(=O)c4c(F)cccc4F)s3)CC2)cc1 [Example F18, 4-{4-[4-Amino-5-(2,6-difluoro-benzoyl)-thiazol-2-ylamino]-piperidine-1-sulfonyl}benzonitrile]
1.7 | 48 | 200 | 3.2 | – | CN(C)c1ccc(S(=O)(=O)N2CCC(Nc3nc(N)c(C(=O)c4c(F)cccc4F)s3)CC2)cn1 [Example F19, 1-{4-Amino-2-[1-(6-dimethylamino-pyridine-3-sulfonyl)-piperidin-4-ylamino]-thiazol-5-yl}-1-(2,6-difluoro-phenyl)-methanone]
1.3 | 170 | 1300 | 1.4 | – | Nc1nc(NC2CCN(S(=O)(=O)c3ccc(N4CCOCC4)nc3)CC2)sc1C(=O)c1c(F)cccc1F [Example F20, 1-{4-Amino-2-[1-(6-morpholin-4-yl-pyridine-3-sulfonyl)-piperidin-4-ylamino]-thiazol-5-yl}-1-(2,6-difluoro-phenyl)-methanone Hydrochloride]
1.2 | 80 | 230 | 0.84 | – | COc1ccc(S(=O)(=O)N2CCC(Nc3nc(N)c(C(=O)c4c(F)cccc4F)s3)CC2)cn1 [Example F22, 1-{4-Amino-2-[1-(6-methoxy-pyridine-3-sulfonyl)-piperidin4-ylamino]-thiazol-5-yl}-1-(2,6-difluoro-phenyl)-methanone]
4.8 | 130 | 300 | 2.8 | – | Nc1nc(NC2CCN(S(=O)(=O)c3cccnc3)CC2)sc1C(=O)c1c(F)cccc1F [Example F23, 1-{4-Amino-2-[1-(pyridine-3-sulfonyl)-piperidin-4-ylamino]-thiazol-5-yl}-1-(2,6-difluoro-phenyl)-methanone]
0.34 | 590 | 1600 | < 1 | – | CN1CCCC1c1ccc(S(=O)(=O)N2CCC(Nc3nc(N)c(C(=O)c4c(F)cccc4F)s3)CC2)cc1 (stereo not drawn) [Example F24, 1-[4-Amino-2-{1-[4-(1-methyl-pyrrolidin-2-y)-benzenesulfonyl]-piperidin-4-ylamino}-thiazol-5-yl)-1-(2,6-difluoro-phenyl)-methanone Dihydrochloride]
0.93 | 80 | 300 | 1.5 | – | CN1CCC(c2ccc(S(=O)(=O)N3CCC(Nc4nc(N)c(C(=O)c5c(F)cccc5F)s4)CC3)cc2)C1 (stereo not drawn) [Example F25, 1-(4-Amino-2-[1-[4-(1-methyl-pyrrolidin-3-yl)-benzenesulfonyl]-piperidin-4-ylamino]-thiazol-5-yl}-1-(2,6-difluoro-phenyl)-methanone Dihydrochloride]
2.2 | 280 | 650 | 15 | – | CN(C)CCS(=O)(=O)N1CCC(Nc2nc(N)c(C(=O)c3c(F)cccc3F)s2)CC1 [Example F26, {4-Amino-2-[1-(2-dimethylamino-ethanesulfonyl)-piperidin-4-ylamino]-thiazol-5-yl}-(2,6-difluoro-phenyl)-methanone]
6.8 | 1000 | 5000 | 32 | – | Nc1nc(NC2CCN(S(=O)(=O)CCc3ccncc3)CC2)sc1C(=O)c1c(F)cccc1F [Example F27, 1-{4-Amino-2-[1-(2-pyridin-4-yl-ethanesulfonyl)-piperidin-4-ylamino]-thiazol-5-yl}-1-(2,6-difluoro-phenyl)-methanone]
8.1 | 650 | 1300 | 3.6 | – | Nc1nc(NC2CCN(S(=O)(=O)CCc3ccccn3)CC2)sc1C(=O)c1c(F)cccc1F [Example F28, 1-{4-Amino-2-[1-(2-pyridin-2-yl-ethanesulfonyl)-piperidin-4-ylamino]-thiazol-5-yl}-1-(2,6-difluoro-phenyl)-methanone]
0.32 | 170 | 1700 | 0.25 | – | Nc1nc(NC2CCN(S(=O)(=O)c3ccc(-c4c[nH]cn4)cc3)CC2)sc1C(=O)c1c(F)cccc1F [Example F30, 1-(4-Amino-2-{1-[4-(1H-imidazol-4-y)-benzenesulfonyl]-piperidin-4-ylamino}-thiazol-5-yl)-1-(2,6-difluoro-phenyl)-methanone Trifluoroacetic Acid Salt]
0.55 | 80 | 300 | < 1 | – | Cn1cnc(-c2ccc(S(=O)(=O)N3CCC(Nc4nc(N)c(C(=O)c5c(F)cccc5F)s4)CC3)cc2)c1 [Example F31, 1-(4-Amino-2-{1-[4-(1-methyl-1H-imidazol-4-yl)-benzenesulfonyl]-piperidin-4-ylamino}-thiazol-5-yl)-1-(2,6-difluoro-phenyl)-methanone Trifluoroacetic Acid Salt]
0.9 | 110 | 380 | 0.4 | – | Cn1cncc1-c1ccc(S(=O)(=O)N2CCC(Nc3nc(N)c(C(=O)c4c(F)cccc4F)s3)CC2)cc1 [Example F32, 1-(4-Amino-2-{1-[4-(3-methyl-3H-imidazol-4-yl)-benzenesulfonyl]-piperidin-4-ylamino}-thiazol-5-yl)-1-(2,6-difluoro-phenyl)-methanone Trifluoroacetic Acid Salt]
0.28 | 160 | 1600 | 0.28 | – | Cc1ncc(-c2ccc(S(=O)(=O)N3CCC(Nc4nc(N)c(C(=O)c5c(F)cccc5F)s4)CC3)cc2)[nH]1 [Example F33, 1-(4-Amino-2-{1-[4-(2-methyl-1H-imidazol-4-yl)-benzenesulfonyl]-piperidin-4-ylamino}-thiazol-5-yl)-1-(2,6-difluoro-phenyl)-methanone Dihydrochloride]
0.51 | 1500 | 2600 | < 1 | – | Nc1nc(NC2CCN(S(=O)(=O)c3ccc(-c4ncc[nH]4)cc3)CC2)sc1C(=O)c1c(F)cccc1F [Example F34]
340 | 1600 | 2600 | 76 | – | N#Cc1ccc(S(=O)(=O)N2CCCC(Nc3nc(N)c(C(=O)c4c(F)cccc4F)s3)C2)cc1 (stereo not drawn) [Example F35, 4-{3-[4-Amino-5-(2,6-difluoro-benzoyl)-thiazol-2-ylamino]-piperidine-1-sulfonyl}-benzonitrile]
780 | > 5000 | > 5000 | 480 | – | CC(=O)Nc1ccc(S(=O)(=O)N2CCCC(Nc3nc(N)c(C(=O)c4c(F)cccc4F)s3)C2)cc1 (stereo not drawn) [Example F36, N-(4-{3-[4-Amino-5-(2,6-difluoro-benzoyl)-thiazol-2-ylamino]-piperidine-1-sulfonyl}-phenyl)-acetamide]
1100 | 700 | 1500 | 430 | – | CS(=O)(=O)N1CCCC(Nc2nc(N)c(C(=O)c3c(F)cccc3F)s2)C1 (stereo not drawn) [Example F37, [4-Amino-2-(1-methanesulfonyl-piperidin-3-ylamino)-thiazol-5-yl]-(2,6-difluoro-phenyl)-methanone]
2 | 790 | > 5000 | 0.8 | – | COC(=O)CCc1ccc(S(=O)(=O)N2CCC(Nc3nc(N)c(C(=O)c4c(F)cccc4F)s3)CC2)cc1 [Example F46]
0.69 | 900 | 2300 | 0.27 | – | Nc1nc(NC2CCN(S(=O)(=O)c3cnc(Cl)nc3)CC2)sc1C(=O)c1c(F)cccc1F [Example F47]
– | 3200 | 5000 | 7.6 | 37 | Cn1cc(S(=O)(=O)N2CCC(Nc3nc(N)c(C(=O)c4c(F)cccc4F)s3)CC2)nc1Br [Example F48, {4-Amino-2-[1-(2-bromo-1-methyl-1H-imidazole-4-sulfonyl)-piperidin-4-ylamino]-thiazol-5-yl}-(2,6-difluoro-phenyl)-methanone]
3.2 | 280 | 2600 | 1.1 | – | Nc1nc(NC2CCN(S(=O)(=O)c3ccc(Br)s3)CC2)sc1C(=O)c1c(F)cccc1F [Example F50, 1-{4-Amino-2-[1-(5-bromo-thiophene-2-sulfonyl)-piperidin4-ylamino]-thiazol-5-yl}1-(2,6-difluoro-phenyl)-methanone]
5.5 | 300 | 630 | 1.5 | – | Nc1nc(NC2CCN(S(=O)(=O)c3cccs3)CC2)sc1C(=O)c1c(F)cccc1F [Example F51, {4-Amino-2-[1-(thiophene-2-sulfonyl)-piperidin4-ylamino]-thiazol-5-yl}-(2,6-difluoro-phenyl)-methanone]
0.52 | 93 | 500 | 1 | – | CN1CC[C@H](c2ccc(S(=O)(=O)N3CCC(Nc4nc(N)c(C(=O)c5c(F)cccc5F)s4)CC3)cc2)C1 [Example F52, (4-Amino-2-{1-[4-(1-methyl-pyrrolidin-3R-yl)-benzenesulfonyl]-piperidin-4-ylamino}-thiazol-5-yl)-(2,6-difluoro-phenyl)-methanone]
